Source: patent US20220213082A1, “PRODRUG OF CASPASE INHIBITOR” (LG CHEM, LTD., priority 2019, published 2022)

Test system: recombinant human carboxylesterases (CE1b, CE1c and CE2)
Test: Hydrolysis test by hydrolase (recombinant human carboxylesterases)
Format: in vitro ADME
Procedure: Various recombinant human carboxylesterases (CE1b, CE1c and CE2) were prepared in order to confirm the hydrolysis tendency of the prodrug by carboxylesterase (CE) which is a hydrolase. The initial enzyme concentration provided by the manufacturer was 5 mg/mL, which was diluted 1/50 in 100 mM potassium phosphate buffer to obtain a protein solution of 100 μg/mL. For the compound of Example 1—which is a prodrug compound to be tested, 5 mg/mL DMSO stock was used as a working solution, which was diluted 1/100 in acetonitrile to obtain 50 μg/mL concentration solution, and again diluted to a concentration of 1/100 in 100 mM potassium phosphate buffer to obtain a drug solution with a final concentration of 500 ng/mL. […] The samples were deproteinized with acetonitrile containing an internal standard (IS) and centrifuged, and the supernatant was injected into LC-MS/MS for analysis. By correcting the obtained peak area of the prodrug with the peak area of IS, the peak response at the time of collection of each sample was obtained, and the residual ratio (% remaining) compared to the initial value was converted. […]
Such result is analyzed that the compound of Example 1 was hydrolyzed by an esterase present in the reaction system and converted into a compound of Formula 2, which is the parent drug.

What does the source list for `CC(=O)O[C@]1(CF)OC(=O)C[C@@H]1NC(=O)[C@]1(C(C)C)CC(c2nccc3ccccc23)=NO1` [Example 1, (2S,3S)-2-(fluoromethyl)-3-((R)-5-isopropyl-3-(isoquinolin-1-yl)-4,5-dihydroisoxazole-5-carboxamido)-5-oxotetrahydrofuran-2-yl acetate]?
contribution of each human recombinant CE isozyme to hydrolysis into compound of Formula 2 (CE1b, CE1c, CE2 compared): greater by CE1b and CE1c than by CE2; residual ratio (% remaining) of prodrug (spiked with human recombinant CE isozyme, after reaction for 60 minutes, LC-MS/MS): most of the prodrug was lost
